Results: ChEMBL document CHEMBL5042510, “Structure-Guided Discovery of Aminoquinazolines as Brain-Penetrant and Selective LRRK2 Inhibitors” (J Med Chem, 2022)
Values after ≈ are worked out from the molar mass of the structure shown.

What was measured:
[1] = Toxicity in rat assessed as elevation of AhR gene expression at 10 to 75 mg/kg, po bid administered for 4 days; type: organism-based; details: in vivo, 96 h, dose 10-75 mg/kg, time 4 day
mouse Bcrp [2] = test: Efflux ratio of apparent permeability across basolateral to apical over apical to basolateral side in mouse Bcrp-transfected dog MDCK-II cells at 0.1 to 1 uM measured after 3 hrs by LC/MS/MS analysis; type: ADME, cell-based, Canis lupus familiaris; details: dose 0.1-1 µM
[3] = Intrinsic clearance in human hepatocytes at 0.3 uM incubated for 90 mins by LC/MS/MS analysis; type: ADME, cell-based, Hepatocyte; details: read-out: CLH
[4] = Intrinsic clearance in Beagle dog at 0.25 mg/kg, iv by LC-MS/MS analysis; type: ADME, organism-based, Canis lupus familiaris; details: in vivo
[5] = MRT in Beagle dog at 0.25 mg/kg, iv by LC-MS/MS analysis; type: ADME, organism-based, Canis lupus familiaris; details: in vivo
UGT1A6 = test: Toxicity in rat assessed as fold increase in UGT1A6 transcriptional activity in liver at 75 mg/kg, po bid administered for 4 days relative to control; type: organism-based; details: time 4 day, read-out: FC
[6] = Total plasma clearance in Wistar Han rat at 2 mg/kg, iv by LC-MS/MS analysis; type: ADME, organism-based
[7] = Intrinsic clearance in dog hepatocytes at 0.3 uM incubated for 90 mins by LC/MS/MS analysis; type: ADME, cell-based, Canis lupus familiaris, Hepatocyte; details: read-out: CLH
[8] = molecular target: Voltage-gated inwardly rectifying potassium channel KCNH2 (Homo sapiens, UniProt Q12809); test: Inhibition of human ERG by voltage clamp assay; type: toxicity
Sequence of Voltage-gated inwardly rectifying potassium channel KCNH2 (Q12809 whole entry): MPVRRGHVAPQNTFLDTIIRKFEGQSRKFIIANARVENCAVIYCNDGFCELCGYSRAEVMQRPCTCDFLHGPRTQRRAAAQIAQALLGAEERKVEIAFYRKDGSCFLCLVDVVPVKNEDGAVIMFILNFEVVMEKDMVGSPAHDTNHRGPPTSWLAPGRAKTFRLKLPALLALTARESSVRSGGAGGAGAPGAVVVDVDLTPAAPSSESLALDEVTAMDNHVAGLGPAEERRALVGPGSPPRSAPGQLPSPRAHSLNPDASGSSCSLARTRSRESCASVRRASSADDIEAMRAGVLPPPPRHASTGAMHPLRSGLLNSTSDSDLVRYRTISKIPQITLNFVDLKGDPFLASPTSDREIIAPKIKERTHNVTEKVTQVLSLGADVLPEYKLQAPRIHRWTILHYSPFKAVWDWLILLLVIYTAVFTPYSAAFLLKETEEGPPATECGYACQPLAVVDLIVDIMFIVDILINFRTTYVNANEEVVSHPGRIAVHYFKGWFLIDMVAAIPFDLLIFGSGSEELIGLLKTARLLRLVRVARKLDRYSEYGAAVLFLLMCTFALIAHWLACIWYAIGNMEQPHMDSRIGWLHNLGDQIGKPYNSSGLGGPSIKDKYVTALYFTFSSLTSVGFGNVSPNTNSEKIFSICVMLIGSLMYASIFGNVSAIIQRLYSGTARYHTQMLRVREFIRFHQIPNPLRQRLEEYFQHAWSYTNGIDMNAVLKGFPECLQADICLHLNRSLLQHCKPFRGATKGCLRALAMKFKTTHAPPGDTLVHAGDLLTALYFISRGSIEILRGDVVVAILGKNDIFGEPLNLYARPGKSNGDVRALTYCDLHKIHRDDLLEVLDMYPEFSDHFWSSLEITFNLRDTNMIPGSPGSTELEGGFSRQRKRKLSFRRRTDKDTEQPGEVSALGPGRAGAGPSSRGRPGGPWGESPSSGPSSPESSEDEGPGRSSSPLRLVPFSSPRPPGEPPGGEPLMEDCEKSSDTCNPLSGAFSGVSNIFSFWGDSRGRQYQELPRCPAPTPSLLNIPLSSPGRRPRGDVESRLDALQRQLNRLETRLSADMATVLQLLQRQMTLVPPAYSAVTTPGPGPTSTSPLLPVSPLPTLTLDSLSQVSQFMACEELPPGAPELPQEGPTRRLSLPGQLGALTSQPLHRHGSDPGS

[9] = Unbound brain-to-plasma concentration ratio in rat at 2.5 uM incubated for 4 hrs by equilibrium dialysis method; type: ADME, cell-free; details: brain and plasma (unbound), read-out: K(p,uu,brain)
[10] = MRT in Rhesus monkey at 0.1 mg/kg, iv by LC-MS/MS analysis; type: ADME, organism-based, Macaca mulatta; details: in vivo
[11] = Total plasma clearance in Beagle dog at 0.25 mg/kg, iv by LC-MS/MS analysis; type: ADME, organism-based, Canis lupus familiaris
[12] = Intrinsic clearance in rat hepatocytes at 0.3 uM incubated for 90 mins by LC/MS/MS analysis; type: ADME, cell-based, Hepatocyte; details: read-out: CLH
[13] = molecular target: T1, Natriuretic peptides A (Homo sapiens) (UniProt P01160); test: Agonist activity at ANF (unknown origin) at 10 uM; details: filed as agonist
T1 sequence (whole entry): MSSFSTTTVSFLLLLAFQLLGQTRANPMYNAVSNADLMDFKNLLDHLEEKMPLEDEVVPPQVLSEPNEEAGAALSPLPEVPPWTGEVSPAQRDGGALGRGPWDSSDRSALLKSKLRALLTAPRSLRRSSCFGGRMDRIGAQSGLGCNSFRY

rat Mdr1a (P-gp) [14] = test: Apparent permeability from apical to basolateral side in rat Mdr1a-transfected pig LLC-PK1 cells at 0.1 to 1 uM measured after 3 hrs by LC/MS/MS analysis; type: ADME, cell-based, Sus scrofa; details: dose 0.1-1 µM
[15] = AUC in rat at 10 to 75 mg/kg, po bid administered for 4 days; type: ADME, organism-based; parameters: time 4 day; details: in vivo, 96 h, dose 10-75 mg/kg
[16] = Toxicity in rat assessed as elevation of inflammatory response related gene expression at 10 to 75 mg/kg, po bid administered for 4 days; type: organism-based; details: in vivo, 96 h, dose 10-75 mg/kg, time 4 day
[17] = Intrinsic clearance in Rhesus monkey at 0.1 mg/kg, iv by LC-MS/MS analysis; type: ADME, organism-based, Macaca mulatta; details: in vivo
GSTA5 = test: Toxicity in rat assessed as fold increase in GSTA5 transcriptional activity in liver at 75 mg/kg, po bid administered for 4 days relative to control; type: organism-based; details: time 4 day, read-out: FC
[18] = molecular target: Leucine-rich repeat serine/threonine-protein kinase 2 (Homo sapiens) (UniProt Q5S007); test: Ex vivo inhibition of LRRK2 in human PBMC assessed as unbound concentration required for reduction in LRRK2 phosphorylation at Ser935 residue incubated for 90 mins by MSD assay; type: cell-based
Sequence of Leucine-rich repeat serine/threonine-protein kinase 2 (Homo sapiens) (Q5S007 whole entry): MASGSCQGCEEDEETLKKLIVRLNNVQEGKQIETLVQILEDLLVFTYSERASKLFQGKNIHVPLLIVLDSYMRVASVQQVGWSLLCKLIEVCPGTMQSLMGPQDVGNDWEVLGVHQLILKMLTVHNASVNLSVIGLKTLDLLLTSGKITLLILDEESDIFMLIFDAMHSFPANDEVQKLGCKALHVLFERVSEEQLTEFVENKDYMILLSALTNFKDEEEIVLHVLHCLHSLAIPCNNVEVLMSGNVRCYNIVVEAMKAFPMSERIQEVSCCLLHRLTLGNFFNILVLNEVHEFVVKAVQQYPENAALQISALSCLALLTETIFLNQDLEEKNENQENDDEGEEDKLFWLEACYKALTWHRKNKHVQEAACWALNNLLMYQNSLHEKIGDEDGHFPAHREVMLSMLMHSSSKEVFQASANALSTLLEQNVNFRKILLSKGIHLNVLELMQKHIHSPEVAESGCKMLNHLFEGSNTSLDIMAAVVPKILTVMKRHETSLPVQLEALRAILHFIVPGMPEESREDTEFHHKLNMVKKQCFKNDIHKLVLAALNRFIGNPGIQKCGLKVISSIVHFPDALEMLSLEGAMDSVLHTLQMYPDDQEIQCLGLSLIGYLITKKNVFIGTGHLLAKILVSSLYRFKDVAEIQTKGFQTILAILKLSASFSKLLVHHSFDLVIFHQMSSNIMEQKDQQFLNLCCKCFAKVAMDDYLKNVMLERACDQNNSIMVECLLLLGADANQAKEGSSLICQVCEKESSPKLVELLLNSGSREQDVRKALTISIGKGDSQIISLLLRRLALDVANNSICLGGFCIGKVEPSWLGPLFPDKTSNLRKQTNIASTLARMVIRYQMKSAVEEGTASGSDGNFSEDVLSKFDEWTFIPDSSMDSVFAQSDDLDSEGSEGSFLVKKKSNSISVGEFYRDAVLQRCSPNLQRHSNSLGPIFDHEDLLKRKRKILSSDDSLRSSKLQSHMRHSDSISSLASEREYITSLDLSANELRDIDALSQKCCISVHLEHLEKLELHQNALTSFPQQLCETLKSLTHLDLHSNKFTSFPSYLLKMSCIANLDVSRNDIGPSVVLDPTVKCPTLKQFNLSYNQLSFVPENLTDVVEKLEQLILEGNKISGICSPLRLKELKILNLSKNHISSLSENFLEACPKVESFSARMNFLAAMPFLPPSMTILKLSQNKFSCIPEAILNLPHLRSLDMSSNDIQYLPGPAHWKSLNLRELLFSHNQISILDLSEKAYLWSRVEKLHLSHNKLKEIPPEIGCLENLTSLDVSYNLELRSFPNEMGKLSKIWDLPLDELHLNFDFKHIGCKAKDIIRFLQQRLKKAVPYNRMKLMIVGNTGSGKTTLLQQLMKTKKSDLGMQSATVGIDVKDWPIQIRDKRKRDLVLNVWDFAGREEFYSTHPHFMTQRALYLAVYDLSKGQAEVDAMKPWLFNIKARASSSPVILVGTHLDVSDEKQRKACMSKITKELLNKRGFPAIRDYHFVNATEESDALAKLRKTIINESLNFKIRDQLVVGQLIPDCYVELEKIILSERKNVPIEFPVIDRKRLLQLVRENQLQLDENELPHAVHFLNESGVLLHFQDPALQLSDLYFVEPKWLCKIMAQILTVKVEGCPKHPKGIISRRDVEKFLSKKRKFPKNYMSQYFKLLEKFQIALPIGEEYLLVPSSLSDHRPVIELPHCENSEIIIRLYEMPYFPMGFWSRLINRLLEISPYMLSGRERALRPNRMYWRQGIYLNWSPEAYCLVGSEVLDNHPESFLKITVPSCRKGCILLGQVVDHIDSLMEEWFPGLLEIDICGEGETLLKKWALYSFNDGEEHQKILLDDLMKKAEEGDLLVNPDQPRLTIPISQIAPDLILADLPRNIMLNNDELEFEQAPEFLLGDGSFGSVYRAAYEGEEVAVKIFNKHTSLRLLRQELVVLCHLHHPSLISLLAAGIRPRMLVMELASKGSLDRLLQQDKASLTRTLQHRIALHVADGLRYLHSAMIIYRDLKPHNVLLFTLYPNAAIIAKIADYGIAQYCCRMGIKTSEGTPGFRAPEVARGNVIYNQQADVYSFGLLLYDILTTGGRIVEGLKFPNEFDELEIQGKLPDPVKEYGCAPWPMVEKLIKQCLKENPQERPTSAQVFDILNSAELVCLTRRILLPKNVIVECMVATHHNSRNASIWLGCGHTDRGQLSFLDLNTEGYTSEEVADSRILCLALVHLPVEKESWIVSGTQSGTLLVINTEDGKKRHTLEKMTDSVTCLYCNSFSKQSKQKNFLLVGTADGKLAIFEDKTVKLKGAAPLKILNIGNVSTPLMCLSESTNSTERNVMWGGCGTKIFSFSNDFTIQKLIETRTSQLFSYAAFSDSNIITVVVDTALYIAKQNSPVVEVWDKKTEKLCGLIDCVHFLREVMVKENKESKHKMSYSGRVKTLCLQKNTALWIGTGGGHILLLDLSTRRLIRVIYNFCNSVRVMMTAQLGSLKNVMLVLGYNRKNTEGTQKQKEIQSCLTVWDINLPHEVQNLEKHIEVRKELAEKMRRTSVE

rat Mdr1a (P-gp) [19] = test: Efflux ratio of apparent permeability across basolateral to apical side over apical to basolateral side in rat Mdr1a-transfected pig LLC-PK1 cells at 0.1 to 1 uM measured after 3 hrs by LC/MS/MS analysis; type: ADME, cell-based, Sus scrofa; details: dose 0.1-1 µM
[20] = Toxicity in rat assessed as drug tolerability at 10 to 75 mg/kg, po bid administered for 4 days; type: organism-based; details: in vivo, 96 h, dose 10-75 mg/kg, time 4 day
[21] = Thermodynamic solubility of the compound in FaSSIF measured after 24 hrs by reverse phase UPLC analysis; type: physicochemical; details: read-out: Therm_solubility
[22] = Intrinsic clearance in Wistar Han rat at 2 mg/kg, iv by LC-MS/MS analysis; type: ADME, organism-based; details: in vivo
[23] = MRT in Wistar Han rat at 2 mg/kg, iv by LC-MS/MS analysis; type: ADME, organism-based; details: in vivo
[24] = Oral bioavailability in Beagle dog at 0.5 mg/kg by LC-MS/MS analysis; type: ADME, organism-based, Canis lupus familiaris; details: in vivo
[25] = Total plasma clearance in Rhesus monkey at 0.1 mg/kg, iv by LC-MS/MS analysis; type: ADME, organism-based, Macaca mulatta
mouse Bcrp [26] = test: Apparent permeability in mouse Bcrp-transfected dog MDCK-II cells at 0.1 to 1 uM measured after 3 hrs by LC/MS/MS analysis; type: ADME, cell-based, Canis lupus familiaris; details: dose 0.1-1 µM
[27] = Toxicity in rat assessed as elevation of PXR gene expression at 10 to 75 mg/kg, po bid administered for 4 days; type: organism-based; details: in vivo, 96 h, dose 10-75 mg/kg, time 4 day
Salmonella typhimurium [28] = test: Mutagenicity in Salmonella typhimurium TA100 at 30 to 5000 ug incubated for 48 hrs in presence of liver S9 fraction by AMES test; type: toxicity, organism-based, Salmonella enterica subsp. enterica serovar Typhimurium; details: s9, 48 h, dose 30-5000 µg
CYP1A1 = test: Toxicity in rat assessed as fold induction of CYP1A1 transcriptional activity in liver at 10 to 75 mg/kg, po bid administered for 4 days relative to control; type: organism-based; details: dose 10-75 mg/kg, time 4 day, read-out: FC
[29] = Oral bioavailability in Wistar Han rat at 10 mg/kg by LC-MS/MS analysis; type: ADME, organism-based; details: in vivo
[30] = molecular target: MAP/microtubule affinity-regulating kinase 3 (Homo sapiens, UniProt P27448); test: Inhibition of MARK3 (unknown origin)
Sequence of MAP/microtubule affinity-regulating kinase 3 (P27448 whole entry): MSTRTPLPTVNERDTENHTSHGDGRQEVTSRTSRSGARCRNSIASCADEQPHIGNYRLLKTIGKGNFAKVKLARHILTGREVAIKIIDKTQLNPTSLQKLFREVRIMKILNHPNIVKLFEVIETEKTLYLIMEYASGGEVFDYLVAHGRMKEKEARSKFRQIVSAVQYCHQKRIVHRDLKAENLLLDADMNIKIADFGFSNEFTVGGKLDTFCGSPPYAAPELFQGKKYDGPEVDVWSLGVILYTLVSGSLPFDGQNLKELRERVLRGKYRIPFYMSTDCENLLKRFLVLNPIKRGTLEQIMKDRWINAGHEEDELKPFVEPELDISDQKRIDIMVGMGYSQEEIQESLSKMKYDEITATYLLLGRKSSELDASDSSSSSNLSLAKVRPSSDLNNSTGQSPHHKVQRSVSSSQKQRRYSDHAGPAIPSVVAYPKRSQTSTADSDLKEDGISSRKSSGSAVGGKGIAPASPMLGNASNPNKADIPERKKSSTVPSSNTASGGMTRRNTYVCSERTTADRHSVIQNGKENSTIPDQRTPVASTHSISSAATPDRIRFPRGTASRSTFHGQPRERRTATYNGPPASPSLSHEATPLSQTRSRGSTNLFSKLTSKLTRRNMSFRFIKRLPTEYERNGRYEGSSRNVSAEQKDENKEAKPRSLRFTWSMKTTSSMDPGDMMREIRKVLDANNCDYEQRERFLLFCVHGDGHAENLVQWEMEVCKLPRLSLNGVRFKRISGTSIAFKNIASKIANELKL

Salmonella typhimurium [31] = test: Mutagenicity in Salmonella typhimurium TA98 at 30 to 5000 ug incubated for 48 hrs in presence of liver S9 fraction by AMES test; type: toxicity, organism-based, Salmonella enterica subsp. enterica serovar Typhimurium; details: s9, 48 h, dose 30-5000 µg
Salmonella typhimurium [32] = test: Mutagenicity in Salmonella typhimurium TA1535 at 30 to 5000 ug incubated for 48 hrs in presence of liver S9 fraction by AMES test; type: toxicity, organism-based, Salmonella enterica subsp. enterica serovar Typhimurium; details: s9, 48 h, dose 30-5000 µg

Cc1c(Nc2ncc3cc(Cl)c(C4CCN([C@@H]5COC[C@@H]5O)CC4)cc3n2)cnn1[C@@H]1CC1(F)F
Activity [1]: Non-Toxic | efflux ratio at 3 h, up to 1 µM (mouse Bcrp [2]): 4.1 | CLint scaled at 0.3 µM [3]: 6.84 L/h/kg | CL [4]: 12.3 L/h/kg | MRT [5]: 16 h | fold induction at 96 h (UGT1A6): 2.5 | clearance [6]: 1.68 L/h/kg | CLint scaled at 0.3 µM [7]: 9.6 L/h/kg | IC50 [8]: 6.2 µM | Kp uu at 4 h, 2.5 µM [9]: 0.43 | MRT [10]: 4.8 h | clearance [11]: 0.9 L/h/kg | CLint scaled at 0.3 µM [12]: 27.8 L/h/kg | Activity [13]: 60% | Papp A→B at 3 h, up to 1 µM (rat Mdr1a (P-gp) [14]): 310 nm/s | AUC [15]: 16 µM·h | Activity [16]: Non-Toxic | CL [17]: 29.2 L/h/kg | fold induction at 96 h (GSTA5): 5 | fIC50 [18]: 2.6 nM | efflux ratio at 3 h, up to 1 µM (rat Mdr1a (P-gp) [19]): 4.3 | Activity [20]: Non-Toxic | solubility thermodynamic at 24 h [21]: 0.03 mg/mL (≈ 59.4 µM) | CL [22]: 28.8 L/h/kg | MRT [23]: 3.7 h | bioavailability [24]: 65% | clearance [25]: 1.74 L/h/kg | Papp at 3 h, up to 1 µM (mouse Bcrp [26]): 300 nm/s | Activity [27]: Non-Toxic | Activity (Salmonella typhimurium [28]): Non-Toxic | fold induction at 96 h (CYP1A1): 3 | bioavailability [29]: 64% | IC50 [30]: 5.7 µM | Activity (Salmonella typhimurium [31]): Non-Toxic | Activity (Salmonella typhimurium [32]): Non-Toxic
